The values below come from patent publication US4769377A, “Adenosine receptor antagonists” (priority 1986, dated 1988).

As a reminder, the Ki is the dissociation constant of the complex between target and ligand, obtained from inhibition or displacement. The IC50 is the point on the concentration scale where inhibition reaches its midpoint. A high value points to lower potency.

≈ marks a conversion by molar mass, not a printed value. Entries after “also recorded” stand apart in the source; their conditions may differ. Where two headings read alike, the source gives them in different places.

Data set [1] can be described thus: Solubility of 8-phenylxanthines. It is filed as physicochemical.
Data set [2] has as its target T1, adenosine A1 receptors (Bos taurus, UniProt P28190).
T1 sequence (P28190 1-326): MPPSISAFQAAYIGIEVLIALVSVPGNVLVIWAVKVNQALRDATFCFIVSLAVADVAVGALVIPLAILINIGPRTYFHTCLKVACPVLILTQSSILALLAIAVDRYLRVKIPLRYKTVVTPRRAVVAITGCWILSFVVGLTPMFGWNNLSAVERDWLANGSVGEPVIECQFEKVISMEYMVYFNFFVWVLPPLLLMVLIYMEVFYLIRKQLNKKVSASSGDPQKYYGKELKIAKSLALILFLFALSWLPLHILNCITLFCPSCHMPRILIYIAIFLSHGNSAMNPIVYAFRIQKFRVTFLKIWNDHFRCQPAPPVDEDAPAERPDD
Nature of the data set: biochemical.
Method: (§1) Incubation was terminated and samples were collected on GF/B filters under vacuum, washed three times, and counted in a liquid scintillation counter. Dose-inhibition curves were generated with four to eight concentrations of the test compound in triplicate incubations.

In data set [3] the target is T1, adenosine A1 receptors. As to the kind of experiment: inhibition of [^3 H]CHA binding to A1 adenosine receptors in bovine brain membranes.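 Further: Filter-bound radioactivity read by liquid scintillation counting, with dose-inhibition curves built from 4–8 test concentrations, each run in triplicate.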
Method: as §1
For a further data set, the target named is T2, A1 receptor in rat brain (Rattus norvegicus, UniProt P25099).
T2 construct: from tissue; host or cells: rat brain
T2 sequence (P25099 1-326): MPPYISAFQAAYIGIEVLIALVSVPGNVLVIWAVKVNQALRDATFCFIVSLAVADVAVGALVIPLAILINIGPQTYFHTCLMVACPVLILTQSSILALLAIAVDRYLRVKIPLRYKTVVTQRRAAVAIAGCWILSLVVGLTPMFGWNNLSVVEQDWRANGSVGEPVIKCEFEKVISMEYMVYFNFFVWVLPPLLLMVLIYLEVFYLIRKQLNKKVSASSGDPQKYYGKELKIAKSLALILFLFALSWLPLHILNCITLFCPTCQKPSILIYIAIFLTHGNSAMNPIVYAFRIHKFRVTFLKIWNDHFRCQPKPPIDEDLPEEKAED
Nature of the data set: A1 receptor affinity in rat brain. It is filed as binding.

The next data set can be described thus: hydrophobicity. Type of data set: physicochemical.
The target in data set [4] is T1, adenosine A1 receptors.
Method: as §1
Where [5] appears, read: Table II, vs [^3 H-CHA] in bovine brain.
The mark [6] stands for this setting: Table I, vs [^3 H]-cyclohexyladenosine, bovine brain.

Regarding `CCCn1c(=O)c2nc(-c3ccc(N)cc3N)[nH]c2n(CCC)c1=O` [B262, 1,3-Dipropyl-8-(2,4-Diaminophenyl) Xanthine], in data set [1] (water), the “water solubility (in words)” value is recorded as “much greater water solubility”. The compound further came in with a Ki at adenosine A1 receptors [2] of 0.14 nM. The compound also gave an IC50 on adenosine A1 receptors [3] of 0.2 nM. Besides, on adenosine A1 receptors [3] (bovine brain), the “activity relative to most active prior art compound (B70)” value was “four-fold greater” and the “adenosine receptor blocking activity (in words)” value was “substantially less active than B256; also recorded: particularly outstanding activity”. For the same compound, on adenosine A1 receptors [3] (bovine brain, listed as 262), the “adenosine receptor blocking activity (in words)” value was “significantly lower”.
For the compound `Cn1c(=O)c2[nH]c(-c3ccc([N+](=O)[O-])cc3N)nc2n(C)c1=O` [8-(2-amino-4-nitrophenyl)T], the Ki on adenosine A1 receptors [2] came to 1.2 nM. On adenosine A1 receptors [3] (setting [5]), this compound yielded an IC50 of 2.5 nM.
Take `Cn1c(=O)c2[nH]c(-c3ccc(Cl)cc3N)nc2n(C)c1=O` [B246, 8-(2-Amino-4-Chlorophenyl) Theophylline]: on adenosine A1 receptors [2], affinity was put at a Ki of 0.2 nM. Also, the IC50 on adenosine A1 receptors [3] worked out at 0.15 nM. For the same compound, the “adenosine receptor blocking activity (in words)” value at adenosine A1 receptors [3] (bovine brain) is on record as “significantly lower”.
In the case of `Cn1c(=O)c2[nH]c(-c3ccc(N)cc3N)nc2n(C)c1=O` [B232, 8-(2,4-diaminophenyl)theophylline], the affinity at adenosine A1 receptors [2], expressed as Ki, was 5.9 nM. Besides, at adenosine A1 receptors [3] (setting [6]), the IC50 was 8 nM.
Regarding `CCn1c(=O)c2[nH]c(-c3ccccc3)nc2n(CC)c1=O` [1,3-diethyl-8-phenylX, 1,3-diethyl-8-phenylxanthine], the solubility in data set [1] (water, read-out: soluble in water at) turned out to be 3 µM (≈ 0.853 µg/mL).
`CCn1c(=O)c2[nH]c(-c3ccc(Cl)cc3N)nc2n(CC)c1=O` [1,3-diethyl-8-(2-amino-4-chlorophenyl)X, 1,3-diethyl-8-(2-amino-4-chlorophenyl)xanthine]: the affinity on adenosine A1 receptors [2], expressed as Ki, was 0.32 nM. In addition, at adenosine A1 receptors [3] (setting [5]), the 50% inhibitory concentration (IC50) was 0.8 nM.
On to `O=c1nc2[nH]c3ccccc3nc-2c(=O)[nH]1` [alloxazine], for which the IC50 on adenosine A1 receptors [3] came out at 1500 nM.
`Cn1c(=O)c2[nH]c(-c3ccc(Cl)cc3)nc2n(C)c1=O` [B70, 8-(p-chlorophenyl)theophylline] registered an IC50 on adenosine A1 receptors [3] (setting [6]) of 0.8 nM.
For the compound `CCCn1c(=O)c2[nH]c(-c3ccc(Cl)cc3N)nc2n(CCC)c1=O` [B256, 1,3-dipropyl-8-(2-amino-4-chlorophenyl)xanthine], at A1 receptor in rat brain, the Ki worked out at 5 nM, the “more potent than 8-phenyltheophylline using rat brain” value is “about 30 fold” and the “more potent than theophylline using rat brain” value is given as roughly 2000 fold. For the same compound, the solubility in data set [1] (dmf, organic solvent or mixture, read-out: soluble in DMF at) came out at 30000 µM (≈ 10900 µg/mL). Besides, the solubility in data set [1] (ethanol, organic solvent or mixture, read-out: soluble in ethanol at) is 1000 µM (≈ 362 µg/mL). Besides, in data set [1] (hot 0.1n koh, read-out: soluble in hot 0.1N KOH at), the solubility was 1000 µM (≈ 362 µg/mL). The “water solubility (in words)” value in data set [1] (water) was “very water-insoluble”. The “hydrophobicity (in words)” value in the data set “hydrophobicity” is listed as “hydrophobic”. Further, the Ki on adenosine A1 receptors [4] was found to be 0.022 nM. Besides, the IC50 on adenosine A1 receptors [3] (setting [6]) came to 0.05 nM. Also, at adenosine A1 receptors [3] (bovine brain), the “activity relative to most active prior art compound (B70)” value is reported as roughly 16 times, the “adenosine receptor blocking activity (in words)” value is given as “significantly lower; also recorded: extremely potent; also recorded: particularly outstanding activity” and the “times more potent than xanthine” value is given as “approximately 4,000,000 times”. The Ki at adenosine A1 receptors [3] (read-out: Ki for adenosine A1 receptors, bovine brain) was 0.022 nM.
On to `Cc1ccc(-c2nc3c([nH]2)c(=O)n(C)c(=O)n3C)c(N)c1` [8-(2-amino-4-methylphenyl)T], for which the IC50 at adenosine A1 receptors [3] (setting [5]) was 10 nM.
Turning to `COc1ccc(-c2nc3c([nH]2)c(=O)n(C)c(=O)n3C)cc1OC` [8-(3,4-dimethoxyphenyl)T], at adenosine A1 receptors [3], the IC50 is 20 nM.
Compound `Cn1c(=O)c2c(ncn2CC(O)CO)n(C)c1=O` (centres unmarked) [7-(2,3-dihydroxypropyl)T] came in with an IC50 at adenosine A1 receptors [3] of 800000 nM.
For `CCCn1c(=O)c2[nH]c(-c3ccccc3)nc2n(CCC)c1=O` [B255, 1,3-Dipropyl-8-Phenylxanthine], at adenosine A1 receptors [3], the IC50 stood at 0.3 nM and the Ki is 0.12 nM. Besides, at adenosine A1 receptors [3] (bovine brain), the “adenosine receptor blocking activity (in words)” value is given as “significantly lower” and the “times more potent than theophylline” value is “about 10,000 times”.
`Cc1cccc(-c2nc3c([nH]2)c(=O)n(C)c(=O)n3C)c1` [8-(m-methylphenyl)T]: the IC50 on adenosine A1 receptors [3] (setting [5]) worked out at 13 nM.
On adenosine A1 receptors [3], `Cn1c(=O)c2[nH]c(-c3ccc(N)cc3)nc2n(C)c1=O` [B211, 8-(p-aminophenyl)theophylline] gave a half-inhibitory concentration (IC50) of 1.7 nM and a Ki of 0.69 nM.
Turning to `COc1ccc(-c2nc3c([nH]2)c(=O)n(C)c(=O)n3C)cc1` [8-(p-methoxyphenyl)T], the IC50 at adenosine A1 receptors [3] (setting [5]) worked out at 1.5 nM.
`Cn1c(=O)c2[nH]c(-c3ccc(Br)o3)nc2n(C)c1=O` [8-(5-bromo-2-furyl)T] had an IC50 at adenosine A1 receptors [3] of 50 nM.
On adenosine A1 receptors [3], `Cn1c(=O)c2[nH]c(-c3c[nH]c4ccccc34)nc2n(C)c1=O` [8-(3-indolyl)T] came in with a 50% inhibitory concentration (IC50) of 18 nM.
For the compound `Cn1c(=O)c2[nH]c(-c3cccnc3)nc2n(C)c1=O` [8-(3-pyridyl)T], on adenosine A1 receptors [3], the concentration for half-maximal inhibition (IC50) turned out to be 50 nM.
`Cn1c(=O)c2[nH]c(-c3ccc(-c4ccccc4)cc3)nc2n(C)c1=O` [8-(p-phenylphenyl)T] had an IC50 at adenosine A1 receptors [3] (setting [5]) of 3.5 nM.
With `Cn1c(=O)c2c(ncn2C)n(C)c1=O` [caffeine], on adenosine A1 receptors [3], the IC50 was found to be 20000 nM and the affinity, expressed as Ki, was 11000 nM.
Compound `Cn1c(=O)c2[nH]c(-c3ccccc3F)nc2n(C)c1=O` [8-(o-fluorophenyl)T] showed an IC50 at adenosine A1 receptors [3] of 12 nM.
